Measured values reported in the NIST ThermoML archive (doi:10.1021/je3000876).
± gives the expanded uncertainty stated by the source.

Legend:
[1] = refractive index (Na D-line) (dimensionless); conditions: 101.33 kPa, Liquid, Standard Abbe refractometry
[2] = for viscosity / mass density: 101.33 kPa, Liquid; for viscosity: Cone and plate viscometry; for mass density: Vibrating tube method

NC(=O)Cn1cc[n+](CCCCn2cc[n+](CC(N)=O)c2)c1.O=S(=O)([N-]S(=O)(=O)C(F)(F)F)C(F)(F)F.O=S(=O)([N-]S(=O)(=O)C(F)(F)F)C(F)(F)F
Conditions | mass density, [2] [kg/m3] | refractive index, [1] | viscosity, [2] [mPa·s]
298.15 K | 1590.17 ± 14 | 1.4546 ± 0.0011 | 8689 ± 1200
303.15 K | 1585.41 ± 14 | 1.4532 ± 0.0011 | 4730 ± 580
308.15 K | 1580.62 ± 14 | 1.4518 ± 0.0011 | 3285 ± 370
313.15 K | 1575.98 ± 14 | 1.4504 ± 0.0011 | 2365 ± 250
318.15 K | 1572.04 ± 14 | 1.4491 ± 0.0011 | 1824 ± 180
323.15 K | 1567.22 ± 13 | 1.4477 ± 0.0011 | 1517 ± 140
328.15 K | 1562.31 ± 13 | 1.4464 ± 0.0011 | 1323 ± 120
333.15 K | 1557.66 ± 13 | 1.4451 ± 0.0011 | 1221 ± 110
338.15 K | 1552.61 ± 13 | 1.4439 ± 0.0011 | 1129 ± 96
343.15 K | 1548.03 ± 13 | 1.443 ± 0.0011 | 1098 ± 93

Conditions | Glass transition temperature [°C]
[2], Glass, DTA | -40 ± 6
